The record followed here is patent US20240002391A1, “4-ALKOXYPYRROLO[2,1-F][1,2,4]TRIAZINES AND PREPARATION AND USES THEREOF” (BioSplice Therapeutics, Inc., priority 2022, published 2024).

For assay [1], the system named is Tau phosphorylation at Thr212 (pThr212) in HEK293T cells transfected with DYRK1A and MAPT. Nature of the assay: Tau phosphorylation phosphoTau (Thr212) AlphaLISA assay in HEK293T cells transfected with DYRK1A and MAPT. Type of assay: cell-based. Particulars: HEK-293T, HEK293T cells transiently transfected with human DYRK1A and MAPT, compound treatment 18-24 hours, read-out: pTau (Thr212) EC50. On the procedure: Representative compounds were screened using the assay procedure for tau phosphorylation activity described below.
HEK293T cells (ATCC, CRL3216) cultured in DMEM (Thermo Fisher Scientific, 10566024) supplemented with 10% FBS (Coming, 35-011—CV) and Penicillin/Streptomycin (Thermo Fisher Scientific, 15140163) were seeded in a 75 cm^2 flask at 8.1×10^6 cells/flask. The HEK293T cells were then transiently transfected with 5 μg DYRK1A (NM_001396) human untagged clone (OriGene, SC314641) and 2.5 μg MAPT (441 a.a. Tau gene) (NM_005910) human untagged clone (OriGene, TP313312) using Lipofectamine 3000 (Thermo Fisher Scientific, L30000015) and incubated for 20-30 hours in a humidified incubator at 37° C. and 5% CO^2. Post-incubation, HEK293T cells transfected with the DYRK1A and MAPT expression vectors were harvested and seeded in BioCoat poly-D lysine coated 96-well plates (Coming, 354461) at 3×10^4 cells/well.
The above synthesized compounds were screened using the cell assay procedure to assess decreased Tau phosphorylation at Thr212 (pThr212) described below.
Each compound was dissolved in DMSO (Sigma-Aldrich, D8418-100 mL) as a 10 mM stock. 10 mM stocks were serially diluted 1:3, 10-point dose-response curve and added to the cells with a final concentration ranging from 20 μM to 1.1 nM. Cells were treated with compounds in duplicate and incubated for 18-24 hours in a humidified incubator at 37° C. and 5% CO^2.
Following the overnight compound treatment, cells were lysed with 1X Alpha Surefire Ultra Lysis Buffer (Perkin Elmer, ALSU-LB-100ML) complemented with 1X Halt Phosphatase Inhibitor Cocktail (Thermo Fisher Scientific, 78427) and 1X Halt Protease Inhibitor Cocktail (Thermo Fisher Scientific, 78438). Lysates were spun down at 12,000 g for 10 min to remove any cellular debris and 5 μL of lysates were dispensed into a 384-well Opti-Plate (Perkin Elmer, 6007290) for the measurement of Tau phosphorylation in the phosphoTau (Thr212) AlphaLISA assay. Donor antibody, biotinylated HT7Tau (Thermo Fisher Scientific, MN1000B), and acceptor antibody, pThr212Tau (Thermo Fisher Scientific, 44740G) were both added to the cell lysates at a final concentration of 3 nM and incubated for 1 hour at room temperature. Following incubation of the lysates with the donor and acceptor antibodies, anti-rabbit IgG(Fc specific) AlphaLISA acceptor beads (Perkin Elmer, AL104C) were added at a 10 ug/mL final concentration and incubated for 1 hour at room temperature protected from light. Lastly, AlphaScreen streptavidin donor beads (PerkinElmer, 6760002) were added at 40 ug/mL final concentration and incubated for 1 hour at room temperature protected from light. Plates were read at […] on the EnVision Multilabel Plate Reader (Perkin Elmer). The phospho-Tau (Thr212) AlphaLISA signal was used to plot, draw the curve fitting, and determine each compound's EC50 in Prism (GraphPad).
(Bead proximity is the source of the signal in Alpha formats.)

The target of assay [2] is recombinant DYRK1A kinase (Homo sapiens (Human), UniProt Q13627). Description: DYRK1A kinase assay (Ser/Thr 18 peptide Z-lyte FRET). Particulars: DYRK1A kinase activity, Z-lyte Ser/Thr 18 peptide, 15 μM ATP; method text calls the value IC50; read-out: EC50 (the source's name). Type of assay: biochemical. An outline of the steps: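 Compounds were tested as 11-point, threefold dilution series starting at 10 μM against recombinant enzyme in a 1 h room-temperature reaction with 15 μM ATP and 4 μM peptide substrate. Phosphorylation is read by protease-coupled FRET, and IC50 values come from curve fitting.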

For the compound `COc1nc(N[C@H]2CC[C@H](NC(C)=O)CC2)nn2ccc(-c3ccc4nccn4c3)c12` [Compound 54, N-(trans-4-((5-(Imidazo[1,2-a]pyridin-6-yl)-4-methoxypyrrolo[2,1-f][1,2,4]triazin-2-yl)amino)cyclohexyl)acetamide], the EC50 in assay [1] worked out at 25.7 nM. Moreover, the IC50 in assay [2] stood at 1.2 nM.
Regarding `COc1nc(NC2CCC3(CC2)COC3)nn2ccc(-c3cnc4nccn4c3)c12` [Compound 276, 5-(Imidazo[1,2-a]pyrimidin-6-yl)-4-methoxy-N-(2-oxaspiro[3.5]nonan-7-yl)pyrrolo[2,1-f][1,2,4]triazin-2-amine], the EC50 in assay [1] turned out to be 10.1 nM. For the same compound, the IC50 in assay [2] turned out to be 0.6 nM.
Turning to `COc1nc(N[C@H]2CC[C@](C)(O)CC2)nn2ccc(-c3cnc4nccn4c3)c12` [Compound 257, trans-4-((5-(Imidazo[1,2-a]pyrimidin-6-yl)-4-methoxypyrrolo[2,1-f][1,2,4]triazin-2-yl)amino)-1-methylcyclohexan-1-ol], the EC50 in assay [1] turned out to be 15.1 nM. Moreover, the IC50 in assay [2] amounted to 0.4 nM.
On to `COc1nc(N[C@H]2CCN(C3COC3)C[C@H]2F)nn2ccc(-c3ccc4ncccc4c3)c12` [Compound 318, N-((3R,4S)-3-Fluoro-1-(oxetan-3-yl)piperidin-4-yl)-4-methoxy-5-(quinolin-6-yl)pyrrolo[2,1-f][1,2,4]triazin-2-amine], for which the concentration giving a half-maximal response (EC50) in assay [1] stood at 75.4 nM. Besides, the IC50 in assay [2] turned out to be 4.2 nM.
In the case of `COc1nc(N[C@H]2CC[C@](C)(O)CC2)nn2ccc(-c3ccc4nccn4c3)c12` [Compound 56, trans-4-((5-(Imidazo[1,2-a]pyridin-6-yl)-4-methoxypyrrolo[2,1-f][1,2,4]triazin-2-yl)amino)-1-methylcyclohexan-1-ol], the EC50 in assay [1] came out at 35.7 nM. In assay [2], the IC50 worked out at 1.3 nM.
The corresponding values for `COc1nc(N[C@H]2CC[C@](C)(O)CC2)nn2ccc(-c3cc(F)c4nccn4c3)c12` [Compound 431, (1r,4r)-4-((5-(8-Fluoroimidazo[1,2-a]pyridin-6-yl)-4-methoxypyrrolo[2,1-f][1,2,4]triazin-2-yl)amino)-1-methylcyclohexan-1-ol] are 129 nM and 2.3 nM.
For the compound `COc1nc(N[C@H]2CC[C@](C)(O)CC2)nn2ccc(-c3ccc4ncnn4c3)c12` [Compound 194, trans-4-((5-([1,2,4]Triazolo[1,5-a]pyridin-6-yl)-4-methoxypyrrolo[2,1-f][1,2,4]triazin-2-yl)amino)-1-methylcyclohexan-1-ol], the EC50 in assay [1] stood at 107 nM. Also, the IC50 in assay [2] is 2.2 nM.
In the case of `COc1nc(N[C@H]2CCN(C)C[C@H]2F)nn2ccc(-c3ccc4ncccc4c3)c12` [Compound 310, N-((3R,4S)-3-Fluoro-1-methylpiperidin-4-yl)-4-methoxy-5-(quinolin-6-yl)pyrrolo[2,1-f][1,2,4]triazin-2-amine], the EC50 in assay [1] amounted to 109 nM. In assay [2], the IC50 worked out at 4.7 nM.
Consider `COc1nc(NC2CC3(COC3)C2)nn2ccc(-c3cnc4nccn4c3)c12` [Compound 272, 5-(Imidazo[1,2-a]pyrimidin-6-yl)-4-methoxy-N-(2-oxaspiro[3.3]heptan-6-yl)pyrrolo[2,1-f][1,2,4]triazin-2-amine], for which the 50% effective concentration (EC50) in assay [1] is 13.4 nM. The IC50 in assay [2] is 1.3 nM.
The corresponding values for `CC[C@]1(O)CC[C@H](Nc2nc(OC)c3c(-c4cnc5nccn5c4)ccn3n2)CC1` [Compound 258, trans-1-Ethyl-4-((5-(imidazo[1,2-a]pyrimidin-6-yl)-4-methoxypyrrolo[2,1-f][1,2,4]triazin-2-yl)amino)cyclohexan-1-ol] are 8.9 nM and 0.8 nM.
Turning to `CNC(=O)[C@]1(C)C[C@@H](Nc2nc(OC)c3c(-c4ccc5nnn(C)c5c4)ccn3n2)C1` [Compound 210, trans-3-((4-Methoxy-5-(1-methyl-1H-benzo[d][1,2,3]triazol-6-yl)pyrrolo[2,1-f][1,2,4]triazin-2-yl)amino)-N,1-dimethylcyclobutane-1-carboxamide], the EC50 in assay [1] was 19.7 nM. The IC50 in assay [2] is 1.5 nM.
For the compound `COc1nc(N[C@H]2CC[C@](C)(O)CC2)nn2ccc(-c3ccn4nccc4c3)c12` [Compound 20, trans-4-((4-Methoxy-5-(pyrazolo[1,5-a]pyridin-5-yl)pyrrolo[2,1-f][1,2,4]triazin-2-yl)amino)-1-methylcyclohexan-1-ol], the concentration giving a half-maximal response (EC50) in assay [1] came out at 107 nM. Besides, in assay [2], the IC50 turned out to be 3.4 nM.
As for `COc1nc(N[C@H]2CC[C@@](C)(O)CC2)nn2ccc(-c3cnc4nc(C)n(CC(F)F)c4c3)c12` [Compound 1, cis-4-((5-(1-(2,2-Difluoroethyl)-2-methyl-1H-imidazo[4,5-b]pyridin-6-yl)-4-methoxypyrrolo[2,1-f][1,2,4]triazin-2-yl)amino)-1-methylcyclohexan-1-ol], the 50% effective concentration (EC50) in assay [1] is 21.6 nM. Besides, the IC50 in assay [2] came to 22.4 nM.
Take `COc1nc(N[C@H]2C[C@](C)(O)C2)nn2ccc(-c3ccc4nnn(C)c4c3)c12` [Compound 200, trans-3-((4-Methoxy-5-(1-methyl-1H-benzo[d][1,2,3]triazol-6-yl)pyrrolo[2,1-f][1,2,4]triazin-2-yl)amino)-1-methylcyclobutan-1-ol]: in assay [1], the concentration giving a half-maximal response (EC50) was found to be 130 nM. For the same compound, in assay [2], the IC50 worked out at 3.8 nM.
For the compound `COc1nc(N[C@H]2C[C@](C)(O)C2)nn2ccc(-c3ccc4nccn4c3)c12` [Compound 44, trans-3-((5-(Imidazo[1,2-a]pyridin-6-yl)-4-methoxypyrrolo[2,1-f][1,2,4]triazin-2-yl)amino)-1-methylcyclobutan-1-ol], the half-maximal effective concentration (EC50) in assay [1] is 48.2 nM.
In the case of `COc1nc(N[C@@H]2CN(C(C)=O)C[C@@H]2F)nn2ccc(-c3ccc4nccnc4c3)c12` [Compound 352, 1-((3S,4R)-3-Fluoro-4-((4-methoxy-5-(quinoxalin-6-yl)pyrrolo[2,1-f][1,2,4]triazin-2-yl)amino)pyrrolidin-1-yl)ethan-1-one], the concentration giving a half-maximal response (EC50) in assay [1] was 39.4 nM. The IC50 in assay [2] came to 2.2 nM.
With `COc1nc(N[C@H]2C[C@@H](OCCO)C2)nn2ccc(-c3ccn4nccc4c3)c12` [Compound 6, 2-(cis-3-((4-Methoxy-5-(pyrazolo[1,5-a]pyridin-5-yl)pyrrolo[2,1-f][1,2,4]triazin-2-yl)amino)cyclobutoxy)ethan-1-ol], the IC50 in assay [2] amounted to 1.1 nM.
`COc1nc(N[C@H]2C[C@](C)(C(=O)NC3CC3)C2)nn2ccc(-c3ccc4ncccc4c3)c12` [Compound 1039, trans-N-Cyclopropyl-3-((4-methoxy-5-(quinolin-6-yl)pyrrolo[2,1-f][1,2,4]triazin-2-yl)amino)-1-methylcyclobutane-1-carboxamide]: the IC50 in assay [2] worked out at 1.7 nM.
On to `COc1nc(N[C@@H]2C[C@@H]3CN(C(C)=O)C[C@@H]3C2)nn2ccc(-c3ccc4nccnc4c3)c12` [Compound 388, 1-((3aR,5r,6aS)-5-((4-Methoxy-5-(quinoxalin-6-yl)pyrrolo[2,1-f][1,2,4]triazin-2-yl)amino)hexahydrocyclopenta[c]pyrrol-2(1H)-yl)ethan-1-one], for which the IC50 in assay [2] is 1.2 nM.
On to `C[C@]1(O)CC[C@H](Nc2nc(OC3COC3)c3c(-c4ccc5ncccc5c4)ccn3n2)CC1` [Compound 1089, (1r,4r)-1-Methyl-4-((4-(oxetan-3-yloxy)-5-(quinolin-6-yl)pyrrolo[2,1-f][1,2,4]triazin-2-yl)amino)cyclohexan-1-ol], for which the IC50 in assay [2] came out at 4.5 nM.
Take `COc1nc(N[C@H]2CC[C@](C)(O)CC2)nn2ccc(-c3ccc4nc(C)n(CC(F)F)c4c3)c12` [Compound 112, trans-4-((5-(1-(2,2-Difluoroethyl)-2-methyl-1H-benzo[d]imidazol-6-yl)-4-methoxypyrrolo[2,1-f][1,2,4]triazin-2-yl)amino)-1-methylcyclohexan-1-ol]: the IC50 in assay [2] is 2.6 nM.

What is called EC50 is the concentration giving half of the maximal effect.
